The text below walks through data of patent US10857105B2, “Compounds and compositions for intracellular delivery of therapeutic agents” (ModernaTX, Inc., priority 2017, dated 2020).

A value given as a limit tells only on which side of the number the result lay.

Series [1] in a line: Particle size and polydispersity index of nanoparticle compositions (Zetasizer Nano ZS). The class given is physicochemical. Summed up: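 Size and PDI measured by Zetasizer Nano ZS in 1×PBS (zeta potential in 15 mM PBS). Lipid nanoparticles contained test ionizable lipid:DSPC:cholesterol:PEG-DMG at 50:10:38.5:1.5 mol % with N1-methyl-pseudouridine mRNA encoding luciferase or hEPO.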

Series [2] can be described thus: Encapsulation efficiency of RNA in nanoparticle compositions (RIBOGREEN assay). The class given is physicochemical. The settings on record: for % EE: compositions for subcutaneous administration. Summed up:
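Lipid nanoparticles (ionisable lipid:DSPC:cholesterol:PEG-DMG 50:10:38.5:1.5 mol %) carrying N1-methylpseudouridine luciferase or hEPO mRNA diluted to about 5 μg/mL in TE, pH 7.5, with or without 2% Triton X-100, 15 min at 37° C. RiboGreen fluorescence (ex ~480, em ~520 nm) blank-subtracted; free RNA = intact/disrupted signal.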

For series [3], the system named is modified luciferase. In words: Luciferase expression in liver, lung, spleen and femur 6 hours after intravenous administration to mice. It is filed as in vivo. The settings on record: 6 hours after intravenous 0.5 mpk, mice. The gist of the method:
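Nanoparticle formulations of the modified luciferase were given intravenously to mice (n=3) at 0.5 mpk. Bioluminescence was measured after 6 hours as total light flux. Standard MC3 formulation and PBS run as controls.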

Series [4] concerns luciferase (Luc) mRNA. In words: Luciferase expression after intramuscular administration to mice. The following applies: for Novel lipid/MC3 expression ratio, i.m. Luc: 6 hr. time point, relative to MC3 formulation. The class given is in vivo. The gist of the method:
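CD-1 mice received lipid nanoparticle formulations of modified luciferase mRNA intramuscularly at 0.01 mpk. Bioluminescence total flux was measured, including at 6 h, and AUC was expressed relative to MC3 formulations. Immunogenicity was assessed in parallel.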

Series [5] is described as follows: Pharmacokinetic study of lipids in plasma, liver and spleen (compound 18, compound 25, MC3). The settings on record: for clearance from liver tissue: rat pharmacokinetic study, 24-48 hours; for half-life / AUC / Cmax / Tmax: male, Sprague-Dawley, rat, iv; for HL: table titled mouse.
Method: LNP administration to animals: mRNA-LNPs diluted in phosphate buffered saline (PBS) were injected intravenously (5 mL/kg) into female CD-1 female mice (18 to 22 g in body weight) and male Sprague-Dawley rats (225-250 g in body weight) via the tail vein using 29 g, 3/10 cc insulin syringes (mice) or 27 g, 1 mL syringes (rats) after gentle warming of the animals using a heat lamp for 3 minutes.
Protein was precipitated and analyzed against calibration standards prepared in matching blank. Chromatographic separation and quantification was accomplished with a LC-MS/MS System. Samples were injected and separated via HPLC A triple-quadrupole MS/MS system operated in positive ion mode was used for signal detection.
PK analysis of the individual plasma and tissue concentration data was performed using anon-validated program (Phoenix WinNonlin®, Version 7.0 (Pharsight Corp., Mountain View, Calif.)). Kinetic parameters were estimated using a noncompartmental model (Plasma (200-202), Uniform weighting, extravascular dosing with sparse sampling). The AUG was calculated using the linear trapezoidal rule. All derived parameters are reported to 3 significant figures with the exception of time to peak concentration (Tmax) and halflife (HL), which are reported to one decimal place. No further statistical analyses were performed on the plasma concentration data or derived pharacokinetic parameters.
For series [6], the system named is hEPO mRNA. In words: hEPO expression after intramuscular administration to mice. It is filed as in vivo. The following applies: for Novel lipid/MC3 ratio, i.m. hEPO: Table 3G, intramuscular, 6 hr. timepoint, relative to MC3. Here is the method: The numbers 1-11 in this figure correspond to MC3, Compounds 18, 25, 30, 108-112, 60, and 122 respectively.
The expression of hEPO and cytokine induction in mice intravenously administered a nanoparticle composition at a dose of 0.5 mpk were measured at 3, 6, and 24 hours. […] The expression of hEPO in mice intramuscularly administered a nanoparticle composition from Table 1B at a dose of 0.01 mpk were measured at 3, 6, and 24 hours. […] (see

[7] abbreviates: Table 1A, lipid:DSPC:cholesterol:PEG-DMG 50:10:38.5:1.5 mol %.
The mark [8] stands for this setting: Table 1B, formulated with hEPO mRNA.
Where [9] appears, read: Table 1D, compositions for subcutaneous administration, # formulated with hEPO mRNA.
Setting [10] is: Table 1C, compositions for subcutaneous administration.
Setting [11] is: Table 1E, compositions for subcutaneous administration.
Setting [12] is: lipid:DSPC:Chol:PEG-DMG (50:10:38.5:1.5), hEPO mRNA.
[13] abbreviates: nanoparticle composition with hEPO mRNA (Table 30).
The mark [14] stands for this setting: luciferase, intramuscular administration (Table 3H).

Regarding `CCCCCCCCCN(CCO)CCCCCCCC(=O)OC(CCCCCCCC)CCCCCCCC` [Compound 3, Heptadecan-9-yl 8-((2-hydroxyethyl)(nonyl)amino)octanoate], the Size in series [1] (setting [7]) is given as 97.5 nm. Besides, in series [2] (setting [7]), the EE came out at 92.25%. In addition, in series [3], the “Total Flux, Femur” value amounted to 7.36E+06; the “Total Flux, Liver” value stood at 1.39E+10; the “Total Flux, Lung” value worked out at 4.76E+07; the “Total Flux, Spleen” value is on record as 1.47E+08.
Turning to `CCCCCCCCCOC(=O)CCCCCCCN(CCO)CCCCCCCC(=O)OC(CCCCCCCC)CCCCCCCC` [Compound 18, Heptadecan-9-yl 8-((2-hydroxyethyl)(8-(nonyloxy)-8-oxooctyl)amino)octanoate], the Size in series [1] (setting [7]) is 87.9 nm. In series [1] (setting [8]), this compound came in with a Size of 73.7 nm. The same compound returned a Size in series [1] (setting [9]) of 75.0 nm. Further, the “Novel lipid/MC3 expression ratio, i.m. Luc” value in series [4] (intramuscular, luciferase) worked out at 2.01. This compound also registered an EE in series [2] (setting [8]) of 96.95%. For the same compound, in series [5] (liver), the “clearance from liver tissue” value was “efficiently cleared from liver tissue by 24 hours”. For the same compound, in series [3], the “Total Flux, Femur” value amounted to 4.68E+06; the “Total Flux, Liver” value is on record as 2.76E+09; the “Total Flux, Lung” value is reported as 1.25E+07; the “Total Flux, Spleen” value is 5.15E+07.
Consider `CCCCCC/C=C\COC(=O)CCCCCCCN(CCO)CCCCCCCC(=O)OC(CCCCCCCC)CCCCCCCC` [Compound 24, Heptadecan-9-yl (Z)-8-((2-hydroxyethyl) (8-(non-2-en-1-yloxy)-8-oxooctyl)amino)octanoate], for which, in series [1] (setting [7]), the Size came to 99.5 nm. In series [1] (setting [10]), this compound yielded a Size of 88.5 nm. The “Novel lipid/MC3 ratio, i.m. Luc” value in series [4] (Table 3G, intramuscular, luciferase, 6 hr. timepoint, relative to MC3) is on record as 1.10. Further, the “Novel lipid/MC3 expression ratio, i.m. Luc” value in series [4] (intramuscular, luciferase) worked out at 1.10. Besides, in series [3], the “Total Flux, Femur” value was 4.54E+06; the “Total Flux, Liver” value is given as 4.19E+09; the “Total Flux, Lung” value stood at 1.71E+07; the “Total Flux, Spleen” value came out at 8.78E+07.
As to `CCCCCCCCCCCOC(=O)CCCCCN(CCO)CCCCCCCC(=O)OC(CCCCCCCC)CCCCCCCC` [Compound 25, Heptadecan-9-yl 8-((2-hydroxyethyl)(6-oxo-6-(undecyloxy)hexyl)amino)octanoate], the “Novel lipid/MC3 ratio, i.m. hEPO” value in series [6] is recorded as 7.1. In series [1] (setting [8]), this compound showed a Size of 69.7 nm. For the same compound, the Size in series [1] (setting [10]) is 76.3 nm. In series [1] (setting [9]), the Size is given as 77.6 nm. For the same compound, the EE in series [2] (setting [7]) came to 95.80%. The EE in series [2] (setting [8]) was 97.92%. In series [5] (liver), the half-life (in general, the time in which the quantity being followed falls by half) was 6.9 h and the “clearance from liver tissue” value was “efficiently cleared from liver tissue by 24 hours”. Further, in series [3], the “Total Flux, Femur” value was 4.40E+06; the “Total Flux, Liver” value is recorded as 2.41E+09; the “Total Flux, Lung” value amounted to 1.51E+07; the “Total Flux, Spleen” value stood at 3.11E+07.
For the compound `CCCCCCCCCOC(=O)CCCN(CCO)CCCCCCCC(=O)OC(CCCCCCCC)CCCCCCCC` [Compound 26, Heptadecan-9-yl 8-((2-hydroxyethyl)(4-(nonyloxy)-4-oxobutyl)amino) octanoate], in series [3], the “Total Flux, Femur” value was determined as 4.67E+06; the “Total Flux, Liver” value is reported as 2.90E+09; the “Total Flux, Lung” value is recorded as 1.18E+07; the “Total Flux, Spleen” value amounted to 1.56E+07.
As to `CCCCCCCCCOC(=O)CCCCCCCN(CCO)CCCCCCCOC(=O)C(CCCCCCCC)CCCCCCCC` [Compound 30, 7-((2-Hydroxyethyl)(8-(nonyloxy)-8-oxooctyl)amino)heptyl 2-octyldecanoate], the “Novel lipid/MC3 ratio, i.m. hEPO” value in series [6] is 9.2. Besides, the Size in series [1] (setting [7]) worked out at 59.4 nm; in series [1] (setting [8]), 76.3 nm; in series [1] (setting [10]), 81.7 nm; in series [1] (setting [9]) it was 89.8 nm. For the same compound, the EE in series [2] (setting [7]) amounted to 95.69%; in series [2] (setting [8]) it was 96.32%. For the same compound, in series [3], the “Total Flux, Femur” value is on record as 6.38E+06. In series [3], the “Total Flux, Liver” value amounted to 2.68E+09. The “Total Flux, Lung” value in series [3] is 1.02E+07. Further, the “Total Flux, Spleen” value in series [3] amounted to 3.55E+07.
`CCCCCCCCC(C)OC(=O)CCCCCCCN(CCO)CCCCCCCC(=O)OC(CCCCCCCC)CCCCCCCC` (stereo not shown) [Compound 48, decan-2-yl 8-((8-(heptadecan-9-yloxy)-8-oxooctyl)(2-hydroxyethyl)amino)octanoate] gave a Size in series [1] (setting [7]) of 82.3 nm. This compound had a Size in series [1] (setting [9]) of 79.8 nm. Moreover, the “Novel lipid/MC3 expression ratio, i.m. Luc” value in series [4] (intramuscular, luciferase) was found to be 0.31. This compound also returned an EE in series [2] (setting [7]) of 96.55%. Besides, in series [3], the “Total Flux, Liver” value is 1.08E+10; the “Total Flux, Lung” value turned out to be 3.31E+07; the “Total Flux, Spleen” value came out at 3.49E+08.
Take `CCCCCC=CCC=CCCCCCCCCC(CCCCCCCCC=CCC=CCCCCC)OC(=O)CCCN(C)C` (stereo not shown) [MC3, heptatriaconta-6,9,28,31-tetraen-19-yl 4-(dimethylamino)butanoate, reference compound]: in series [6] (mice, intramuscular 0.01 mpk, 6 hr time point), the “Fold increase in hEPO concentration relative to MC3” value came out at 1. Further, the PDI in series [1] (setting [7]) is given as 0.11; in series [1] (setting [8]), 0.12; in series [1] (setting [10]), 0.09; in series [1] (setting [9]), 0.15; in series [1] (setting [11]), 0.10; in series [1] (setting [12]), 0.114. This compound also showed a PDI in series [1] (setting [13]) of 0.220. For the same compound, the Size came to 79.7 nm in series [1] (setting [7]); 57.7 nm in series [1] (setting [8]); 56.9 nm in series [1] (setting [10]); 69.1 nm in series [1] (setting [9]); 62.4 nm in series [1] (setting [11]); 73.7 nm in series [1] (setting [12]). Besides, in series [1] (setting [13]), the Size amounted to 106.0 nm. Moreover, the “Total flux 6 hours after intramuscular administration, 0.01 mpk Dose” value in series [4] (Luc mRNA, intramuscular, 0.01 mpk, 6 hours) is reported as 3.23E+07 p/s. Also, the AUC stood at 5.88E+08 p/s*h in series [4] (setting [14]), 1410 µg·h/mL in series [5] (liver), 69.1 µg·h/mL in series [5] (plasma) and 787 µg·h/mL in series [5] (spleen). Besides, the “Lipid/MC3 AUC” value in series [4] (setting [14]) was determined as 1. For the same compound, the EE worked out at 97.3% in series [2] (setting [7]), 99.01% in series [2] (setting [8]), 97.22% in series [2] (setting [12]) and 91.66% in series [2] (setting [13]). The “% EE” value in series [2] (Table 1C) is on record as 98.2%; in series [2] (Table 1D, # formulated with hEPO mRNA), 98.7%; in series [2] (Table 1E), 98%. The HL was 52.5* hr in series [5] (Liver, * = 2 terminal datapoints estimation); 8.4 h in series [5] (Plasma); 33.3* hr in series [5] (Spleen, * = 2 terminal datapoints estimation). For the same compound, the maximum concentration (Cmax) (commonly the peak of the concentration-time curve) worked out at 33000 ng/mL in series [5] (liver), 28900 ng/mL in series [5] (plasma) and 21200 ng/mL in series [5] (spleen). For the same compound, the Tmax (in general, the time from dosing to the highest level) in series [5] (liver) worked out at 24 h; in series [5] (plasma) it was 0.5 h; in series [5] (spleen) it was 8 h. This compound also displayed a half-life in series [5] (liver) of over 50 h. For the same compound, the “clearance from liver tissue” value in series [5] (liver) is “still present at high concentrations at 48 hours”. The “Total Flux, Femur” value in series [3] is recorded as 2.56E+06. Also, the “Total Flux, Liver” value in series [3] was 2.57E+09. Besides, the “Total Flux, Lung” value in series [3] is 1.27E+07. For the same compound, the “Total Flux, Spleen” value in series [3] amounted to 2.85E+07.
In the case of “Nonyl 8-((6-(heptadecan-9-yloxy)-6-oxohexyl)(2-hydroxyethyl)amino) octanoate [Compound 27]”, in series [1] (setting [7]), the PDI was determined as 0.18 and the Size is 82.3 nm. In series [4] (intramuscular, luciferase), the “Novel lipid/MC3 expression ratio, i.m. Luc” value is 3.94. This compound also yielded an EE in series [2] (setting [7]) of 94.27%. Moreover, in series [3], the “Total Flux, Femur” value is on record as 2.00E+06; the “Total Flux, Liver” value stood at 2.16E+09; the “Total Flux, Lung” value was 6.35E+06; the “Total Flux, Spleen” value amounted to 3.78E+06.
